Laboratory results as given in paper PMC8196973, “Synthesis, Molecular Docking Analysis and Biological Evaluations of Saccharide-Modified Thiadiazole Sulfonamide Derivatives” (International Journal of Molecular Sciences, 2021).
Converted amounts (≈) assume the structure as drawn.

Legend:
hCA IX = hCA IX (Homo sapiens, UniProt Q16790); test: hCA IX enzyme inhibition assay (4-NPA hydrolysis)
Protocol: (§2) Carbonic anhydrase can catalyze the hydrolysis of 4-nitrophenyl acetate (4-NPA). […] The experimental buffer consisted of 15 mmol/L 4-(2-hydroxyethyl)-1-piperazineethanesulfonic acid (HEPES) (pH = 7.40), 0.01% tetraethylene glycol monododecyl ether (Brij), and 100 mmol/L NaCl. […] Then, 18 μL of enzyme solution was transferred into 384-well plates in duplicate. Stock solutions of the inhibitors (10.0 mmol/L) were prepared using DMSO as solvent, and then diluted 1:3 with DMSO. […] Then 2.00 μL of each inhibitor was added to each well. All compounds were allowed to incubate with the enzyme for 15 min at 25 °C to form the Enzyme-Inhibitor (E-I) complex. After that, substrate 4-NPA (1.00 mmol/L, 20.00 μL, Sigma-Aldrich, St. Louis, MI, USA) was added into the E-I complex solution and incubated for 60, 90, 90 min at 25 °C, respectively.

hCA II = hCA II (Homo sapiens, UniProt P00918); test: hCA II enzyme inhibition assay (4-NPA hydrolysis)
Protocol: as §2

hCA XII = hCA XII (Homo sapiens, UniProt O43570); test: hCA XII enzyme inhibition assay (4-NPA hydrolysis)
Protocol: as §2

[1] = test system: human colon cancer HT-29 cells; test: CCK-8 cell viability assay, HT-29; type: cell-based; details: Homo sapiens, HT-29; Table S2
Protocol: (§1) The MDA-MB-231, HT-29 and MG-63 cell lines were provided by KeyGEN BioTECH Ltd (Nanjing, Jiangsu, China). The cells were digested and counted to prepare a cell suspension of 5.0 × 10^4 cells/mL, and then 100 μL of cell suspension was added to each well of the 96-well cell culture plate. The plates were placed in a 37 °C, 5% CO2 incubator (Corning Incorporated, Corning, New York, USA) for 24 h. The drug was diluted with the culture medium to the required concentration, ed100 μL of the corresponding drug-containing medium was added to each well, and a negative control group was set up at the same time. The 96-well cell culture plates were placed into a normoxic incubator (37 °C, 5% CO2) and hypoxic incubator (37 °C, 5% CO2, 0.5% O2, 94.5% N2) for 48 h. Finally, the 96-well plate was stained with CCK-8 and the OD value determined (λ = 450 nm).

[2] = test system: breast adenocarcinoma MDA-MB-231 cells; test: CCK-8 cell viability assay, MDA-MB-231; type: cell-based, human; details: Homo sapiens, MDA-MB-231; Table S2
Protocol: as §1

Sequence of hCA XII (O43570 25-354): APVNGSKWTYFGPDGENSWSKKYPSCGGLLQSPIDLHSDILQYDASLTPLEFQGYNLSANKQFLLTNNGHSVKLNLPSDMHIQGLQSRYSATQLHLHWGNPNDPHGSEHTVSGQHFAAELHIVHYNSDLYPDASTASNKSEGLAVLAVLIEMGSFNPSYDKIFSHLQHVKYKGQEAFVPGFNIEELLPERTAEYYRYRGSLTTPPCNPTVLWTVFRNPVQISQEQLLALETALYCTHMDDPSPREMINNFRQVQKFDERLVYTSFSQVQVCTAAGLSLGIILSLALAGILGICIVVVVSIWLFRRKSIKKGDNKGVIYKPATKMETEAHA

Row | SMILES | IC50 (hCA IX) [nM] | IC50 (hCA II) [nM] | selectivity: inhibitory activity for hCA IX higher than that for hCA II (hCA IX; hCA IX over hCA II) [times] | IC50 (hCA XII) [nM] | IC50 [1] [µg/mL] | IC50 [2] [µg/mL]
1 | Nc1ccc(C(=O)Nc2nnc(S(N)(=O)=O)s2)cc1 [Compound 12a, 4-Amino-N-(5-sulfamoyl-1,3,4-thiadiazol-2-yl)benzamide] | 44.6 ± 8.3 | – | – | – | – | –
2 | Nc1ccc(C(=O)Nc2nnc(S(N)(=O)=O)s2)cc1Cl [Compound 12d, 4-Amino-3-chloro-N-(5-sulfamoyl-1,3,4-thiadiazol-2-yl)benzamide] | 36.5 ± 7.6 | 401 ± 12.3 | – | – | – | –
3 | Nc1ccc(C(=O)Nc2nnc(S(N)(=O)=O)s2)cc1[N+](=O)[O-] [Compound 12f, 4-Amino-3-nitro-N-(5-sulfamoyl-1,3,4-thiadiazol-2-yl)benzamide] | 55.1 ± 11.5 | 701 ± 13.2 | 10 | – | – | –
4 | Cc1cc(C(=O)Nc2nnc(S(N)(=O)=O)s2)ccc1N [Compound 12g, 4-Amino-3-methyl-N-(5-sulfamoyl-1,3,4-thiadiazol-2-yl)benzamide] | 43.8 ± 6.6 | 120 ± 14.8 | – | – | – | –
5 | COc1cc(C(=O)Nc2nnc(S(N)(=O)=O)s2)ccc1N [Compound 12h, 4-Amino-3-methoxy-N-(5-sulfamoyl-1,3,4-thiadiazol-2-yl)benzamide] | 36.4 ± 8.3 | 147 ± 15.3 | – | – | – | –
6 | NS(=O)(=O)c1nnc(NC(=O)c2ccc(NC(=O)CCCC(=O)N[C@@H]3O[C@H](CO)[C@@H](O)[C@H](O)[C@H]3O)c(F)c2)s1 [Compound 14c, N^1-(2-Fluoro-4-((5-sulfamoyl-1,3,4-thiadiazol-2-yl)carbamoyl)phenyl)-N^5-((2R,3R,4S,5S,6R)-3,4,5-trihydroxy-6-(hydroxymethyl)tetrahydro-2H-pyran-2-yl)glutaramide] | 76.6 ± 6.2 | 215 ± 9.5 | – | 81.8 ± 11.1 | – | –
7 | NS(=O)(=O)c1nnc(NC(=O)c2ccc(NC(=O)CCCC(=O)N[C@@H]3O[C@H](CO)[C@@H](O)[C@H](O)[C@H]3O)c(Cl)c2)s1 [Compound 14d, N^1-(2-Chloro-4-((5-sulfamoyl-1,3,4-thiadiazol-2-yl)carbamoyl)phenyl)-N^5-((2R,3R,4S,5S,6R)-3,4,5-trihydroxy-6-(hydroxymethyl)tetrahydro-2H-pyran-2-yl)glutaramide] | 280 ± 10.2 | 765 ± 15.1 | – | – | – | –
8 | NS(=O)(=O)c1nnc(NC(=O)c2ccc(NC(=O)CCCC(=O)N[C@@H]3O[C@H](CO)[C@@H](O)[C@H](O)[C@H]3O)c([N+](=O)[O-])c2)s1 [Compound 14f, N^1-(2-Nitro-4-((5-sulfamoyl-1,3,4-thiadiazol-2-yl)carbamoyl)phenyl)-N^5-((2R,3R,4S,5S,6R)-3,4,5-trihydroxy-6-(hydroxymethyl)tetrahydro-2H-pyran-2-yl)glutaramide] | 117 ± 6.9 | 995 ± 10.6 | – | – | – | –
9 | NS(=O)(=O)c1nnc(NC(=O)c2ccc(NC(=O)CCC(=O)NC3OC(CO)C(O)C(O)C3O)cc2)s1 [Compound 14i, N^1-(4-((5-Sulfamoyl-1,3,4-thiadiazol-2-yl)carbamoyl)phenyl)-N^4-((2R,3R,4S,5S,6R)-3,4,5-trihydroxy-6-(hydroxymethyl)tetrahydro-2H-pyran-2-yl)succinimide] | 54.9 ± 6.2 | 197 ± 7.9 | – | 52.8 ± 11.4 | – | –
10 | NS(=O)(=O)c1nnc(NC(=O)c2cccc(NC(=O)CCC(=O)N[C@@H]3O[C@H](CO)[C@@H](O)[C@H](O)[C@H]3O)c2)s1 [Compound 14j, N^1-(3-((5-Sulfamoyl-1,3,4-thiadiazol-2-yl)carbamoyl)phenyl)-N^4-((2R,3R,4S,5S,6R)-3,4,5-trihydroxy-6-(hydroxymethyl)tetrahydro-2H-pyran-2-yl)succinimide] | 69.4 ± 5.7 | 260 ± 12.6 | – | 40.6 ± 6.9 | – | –
11 | NS(=O)(=O)c1nnc(NC(=O)c2ccc(NC(=O)CCC(=O)N[C@@H]3O[C@H](CO)[C@@H](O)[C@H](O)[C@H]3O)c(Cl)c2)s1 [Compound 14l, N^1-(2-Chloro-4-((5-sulfamoyl-1,3,4-thiadiazol-2-yl)carbamoyl)phenyl)-N^4-((2R,3R,4S,5S,6R)-3,4,5-trihydroxy-6-(hydroxymethyl)tetrahydro-2H-pyran-2-yl)succinimide] | 256 ± 7.9 | 612 ± 8.5 | – | – | – | –
12 | NS(=O)(=O)c1nnc(NC(=O)c2ccc(NC(=O)CCC(=O)N[C@@H]3O[C@H](CO)[C@@H](O)[C@H](O)[C@H]3O)c(Br)c2)s1 [Compound 14m, N^1-(2-Bromo-4-((5-sulfamoyl-1,3,4-thiadiazol-2-yl)carbamoyl)phenyl)-N^4-((2R,3R,4S,5S,6R)-3,4,5-trihydroxy-6-(hydroxymethyl)tetrahydro-2H-pyran-2-yl)succinimide] | 865 ± 10.7 | 824 ± 11.1 | – | – | – | –
13 | NS(=O)(=O)c1nnc(NC(=O)c2ccc(NC(=O)CCC(=O)N[C@@H]3O[C@H](CO)[C@@H](O)[C@H](O)[C@H]3O)c([N+](=O)[O-])c2)s1 [Compound 14n, N^1-(2-Nitro-4-((5-sulfamoyl-1,3,4-thiadiazol-2-yl)carbamoyl)phenyl)-N^4-((2R,3R,4S,5S,6R)-3,4,5-trihydroxy-6-(hydroxymethyl)tetrahydro-2H-pyran-2-yl)succinimide] | 291 ± 10.9 | 1400 ± 24.6 | – | – | – | –
14 | Cc1cc(C(=O)Nc2nnc(S(N)(=O)=O)s2)ccc1NC(=O)CCC(=O)N[C@@H]1O[C@H](CO)[C@@H](O)[C@H](O)[C@H]1O [Compound 14o, N^1-(2-Methy-4-((5-sulfamoyl-1,3,4-thiadiazol-2-yl)carbamoyl)phenyl)-N^4-((2R,3R,4S,5S,6R)-3,4,5-trihydroxy-6-(hydroxymethyl)tetrahydro-2H-pyran-2-yl)succinimide] | 135 ± 7 | 270 ± 13.9 | – | – | – | –

Further lines, results first:

Row | IC50 (hCA IX) [nM] | IC50 (hCA II) [nM] | selectivity: inhibitory activity for hCA IX higher than that for hCA II (hCA IX; hCA IX over hCA II) [times] | IC50 (hCA XII) [nM] | IC50 [1] [µg/mL] | IC50 [2] [µg/mL] | SMILES
15 | 63.8 ± 6.3 | 79.1 ± 5.4 | – | – | – | – | Nc1cccc(C(=O)Nc2nnc(S(N)(=O)=O)s2)c1 [Compound 12b, 3-Amino-N-(5-sulfamoyl-1,3,4-thiadiazol-2-yl)benzamide]
16 | 41.3 ± 6.2 | 242 ± 9.4 | – | – | – | – | Nc1ccc(C(=O)Nc2nnc(S(N)(=O)=O)s2)cc1F [Compound 12c, 4-Amino-3-fluoro-N-(5-sulfamoyl-1,3,4-thiadiazol-2-yl)benzamide]
17 | 65.9 ± 8.3 | 543 ± 10.3 | – | – | – | – | Nc1ccc(C(=O)Nc2nnc(S(N)(=O)=O)s2)cc1Br [Compound 12e, 4-Amino-3-bromo-N-(5-sulfamoyl-1,3,4-thiadiazol-2-yl)benzamide]
18 | 1082 ± 8.5 | 886 ± 13.7 | – | – | – | – | NS(=O)(=O)c1nnc(NC(=O)c2ccc(NC(=O)CCCC(=O)N[C@@H]3O[C@H](CO)[C@@H](O)[C@H](O)[C@H]3O)c(Br)c2)s1 [Compound 14e, N^1-(2-Bromo-4-((5-sulfamoyl-1,3,4-thiadiazol-2-yl)carbamoyl)phenyl)-N^5-((2R,3R,4S,5S,6R)-3,4,5-trihydroxy-6-(hydroxymethyl)tetrahydro-2H-pyran-2-yl)glutaramide]
19 | 53.4 ± 6.2 | 165 ± 9.1 | – | 70.5 ± 10.9 | – | – | Cc1cc(C(=O)Nc2nnc(S(N)(=O)=O)s2)ccc1NC(=O)CCCC(=O)N[C@@H]1O[C@H](CO)[C@@H](O)[C@H](O)[C@H]1O [Compound 14g, N^1-(2-Methyl-4-((5-sulfamoyl-1,3,4-thiadiazol-2-yl)carbamoyl)phenyl)-N^5-((2R,3R,4S,5S,6R)-3,4,5-trihydroxy-6-(hydroxymethyl)tetrahydro-2H-pyran-2-yl)glutaramide]
20 | 141 ± 8.1 | 474 ± 7.1 | – | – | – | – | NS(=O)(=O)c1nnc(NC(=O)c2ccc(NC(=O)CCC(=O)N[C@@H]3O[C@H](CO)[C@@H](O)[C@H](O)[C@H]3O)c(F)c2)s1 [Compound 14k, N^1-(2-Fluoro-4-((5-sulfamoyl-1,3,4-thiadiazol-2-yl)carbamoyl)phenyl)-N^4-((2R,3R,4S,5S,6R)-3,4,5-trihydroxy-6-(hydroxymethyl)tetrahydro-2H-pyran-2-yl)succinimide]
21 | – | – | – | – | 0.111 (≈ 0.13 µM) | 0.099 (≈ 0.116 µM) | CC(=O)O[C@H]1C(=O)[C@@]2(C)[C@H]([C@H](OC(=O)c3ccccc3)[C@]3(O)C[C@H](OC(=O)[C@H](O)[C@@H](NC(=O)c4ccccc4)c4ccccc4)C(C)=C1C3(C)C)[C@]1(OC(C)=O)CO[C@@H]1C[C@@H]2O [Taxol, reference compound]
